# Experimental data reported in publication PMC12931196, “Vm–MSI: a Vancomycin–Antimicrobial Peptide Conjugate Combating Resistant Bacteria and Broadening the Antimicrobial Spectrum” (Advanced Science, 2025).
# Values joined by “and” are separate entries in the source; they are usually repeats but may differ in a detail not shown here. Identical values can stand only once.
# Columns and labels:
# [1] = test system: 29 bacterial strains (11 Gram‐positive, 18 Gram‐negative); experiment: GM of the MICs across the 29 bacterial strains; type: cell-based; conditions: read-out: GM: Geometric mean of the MICs across the 29 bacterial strains
# Description: The 2 fold broth microdilution method was performed following previously established protocols.^[ [65], [66] ^] A total of 29 strains of human pathogenic microorganisms (11 Gram‐positive and 18 Gram‐negative) were included in the assay. Standard strains were maintained in our laboratory, and clinical isolates were obtained from the Fourth Affiliated Hospital of Soochow University. […] Gradient dilutions of the drugs (vancomycin, AMPs, and vancomycin‐AMP conjugates) were prepared in 96‐well plates, with 50 µL of each drug solution added per well. For the vancomycin and AMP mixture, 25 µL of vancomycin was combined with 25 µL of AMP at the corresponding monomer gradient concentration, resulting in a total volume of 50 µL. […] Following incubation, bacterial growth was assessed by measuring absorbance at 600 nm. The MIC was defined as the lowest concentration at which no bacterial growth was detected.
# [2] = test system: E. coli ATCC25922; experiment: Live/dead bacteria staining (PI/SYTO9, CLSM); type: cell-based; conditions: 4 µM, 1 h
# [3] = test system: VRSA 52; experiment: Mouse skin infection model; type: in vivo, BALB/c mice
# [4] = test system: multidrug‐resistant A. baumannii; experiment: Mouse lung infection model; type: in vivo, mice; conditions: single i.p. 5 mg kg^−1 at 0.5 h post‐infection; lung CFU after one day
# Description: The experimental methods employed in this study were based on previously published literature.^[ [64] ^] 6–8 weeks old female mice weighing 18–20 g were selected for the study, and colonization was performed by administering 50 µL of a multidrug‐resistant A. baumannii strain (at a concentration of 1 × 10^7 CFU/mL) via tracheal intubation into the lungs of the mice for a duration of 0.5 h. After this period, an intraperitoneal injection of the drug at a dosage of 5 mg kg^−1 was administered. PBS served as a negative control, while ciprofloxacin was used as a positive control. After 24 h, the mice were euthanized, and their lung tissues were excised, homogenized, and diluted 10000 fold for colony counting. The lung tissue homogenate was then centrifuged to obtain the supernatant, which was further diluted 5 fold. The expression levels of inflammatory factors IL‐6 and TNF‐α in the supernatant were measured using an ELISA assay (ThermoFisher, US).
# [5] = test system: VRSA 52 biofilms; conditions: 8 µM, 4 h, SYTO9/PI CLSM
# [6] = test system: E. coli ATCC25922 biofilms; conditions: 8 µM, 4 h, SYTO9/PI CLSM
# [7] = test system: E. coli ATCC25922; experiment: Bacterial killing kinetics; conditions: 4 µM, sampled 0-180 min
# [8] = test system: S. aureus CMCC26003; experiment: microbe, parasite or virus in culture; conditions: Staphylococcus aureus, CMCC26003, 18 h
# [9] = test system: S. aureus ATCC29213; experiment: microbe, parasite or virus in culture; conditions: Staphylococcus aureus, ATCC29213, 18 h
# [10] = test system: S. aureus 15192; experiment: microbe, parasite or virus in culture; conditions: Staphylococcus aureus, 15192, 18 h
# [11] = test system: VRSA 11; experiment: microbe, parasite or virus in culture; conditions: Staphylococcus aureus, 18 h
# [12] = test system: VRSA 52; experiment: microbe, parasite or virus in culture; conditions: Staphylococcus aureus, 18 h
# [13] = test system: E. faecalis 2; experiment: microbe, parasite or virus in culture; conditions: Enterococcus faecalis, 2, 18 h
# [14] = test system: E. coli ATCC25922; experiment: microbe, parasite or virus in culture; conditions: Escherichia coli, ATCC25922, 18 h
# [15] = test system: A. baumannii ATCC19606; experiment: microbe, parasite or virus in culture; conditions: Acinetobacter baumannii, ATCC19606, 18 h
# [16] = test system: MDR K. pneumoniae 2; experiment: microbe, parasite or virus in culture; conditions: Klebsiella pneumoniae, 18 h
# [17] = test system: MDR K. pneumoniae 3; experiment: microbe, parasite or virus in culture; conditions: Klebsiella pneumoniae, 18 h
# [18] = test system: MDR K. pneumoniae 4; experiment: microbe, parasite or virus in culture; conditions: Klebsiella pneumoniae, 18 h
# [19] = test system: ompR, csgA, csgD, mlrA, and rcsB expression in E. coli ATCC25922; experiment: qPCR analysis of biofilm‐related genes; conditions: 8 µM, 48 h static; qPCR ΔΔCt
# [20] = test system: VRSA 52; experiment: Live/dead bacteria staining (PI/SYTO9, CLSM); conditions: 4 µM, 1 h
smiles,measurement,setting,value
"CN[C@H](CC(C)C)C(=O)N[C@H]1C(=O)N[C@@H](CC(N)=O)C(=O)N[C@H]2C(=O)N[C@H]3C(=O)N[C@H](C(=O)N[C@H](C(=O)O)c4cc(O)cc(O)c4-c4cc3ccc4O)[C@H](O)c3ccc(c(Cl)c3)Oc3cc2cc(c3O[C@@H]2O[C@H](CO)[C@@H](O)[C@H](O)[C@H]2O[C@H]2C[C@](C)(N)[C@H](O)[C@H](C)O2)Oc2ccc(cc2Cl)[C@H]1O [Vm, vancomycin]",MIC,[1],55.1 µM
same,bacteria killed (mortality),[2],6%
same,reduction in bacterial count within the wound,"[3]; topical 2 mg kg^−1 at 6, 24 and 48 h post‐infection, VRSA 52 1 × 10^8 CFU mL^−1, wound CFU after 3 days",≈ 30%
same,pro‐inflammatory cytokines TNF‐α and IL‐6 at the infection site,"[3]; topical 2 mg kg^−1 ×3, ELISA of wound supernatant",didn't effectively decrease
same,skin wound healing,"[3]; topical 2 mg kg^−1 ×3, observed to day 12",remained unhealed
same,lung‐colonizing bacteria eliminated,[4],no antibacterial activity
same,killing in the surface layer of the biofilm (dead cells),[5],25%
same,killing at the bottom of the biofilm,[6],20%
same,killing at the surface of the biofilm,[6],60%
same,time to elimination of all bacteria,[7],no bactericidal activity
same,MIC,[8],0.4 µM and 0.59 µg/mL
same,MIC,[9],3.16 µM and 4.69 µg/mL
same,MIC,[10],0.4 µM and 0.59 µg/mL
same,MIC,[11],> 67.3 µM and > 100 µg/mL
same,MIC,[12],> 67.3 µM and > 100 µg/mL
same,MIC,[13],> 67.3 µM
same,MIC,[14],> 67.3 µM and > 100 µg/mL
same,MIC,[15],> 67.3 µM and > 100 µg/mL
same,MIC,[16],> 67.3 µM
same,MIC,[17],> 67.3 µM
same,MIC,[18],> 67.3 µM
same,csgA expression relative to control,[19],0.8
same,csgD expression relative to control,[19],0.6
same,rcsB up‐regulation relative to control,[19],1.5 fold
same,bacterial mortality,[20],2%
